Assay results taken from patent US20050043315A1, “Aminopyrimidine compounds, processes for their preparation and pharmaceutical compositions containing them” (priority 2002, published 2005).

Structure (SMILES)	melting point [°C]
CC(C)n1nc(-c2c(-c3ccccc3)nc(N)nc2N2CCCCC2)ccc1=O [Example 126, 6-[2-Amino-4-phenyl-6-(1-piperidinyl)-5-pyrimidinyl]-2-isopropyl-3(2H)-pyridazinone]	221 to 223
CC(C)n1nc(-c2c(-c3ccccc3)nc(N)nc2N2CCOCC2)ccc1=O [Example 127, 6-[2-Amino-4-(4-morpholinyl)-6-phenyl-5-pyrimidinyl]-2-isopropyl-3(2H)-pyridazinone]	251 to 253
CC(C)n1nc(-c2c(-c3ccccc3)nc(N)nc2N2CCNCC2)ccc1=O [Example 128, 6-[2-amino-4-phenyl-6-(1-piperazinyl)-5-pyrimidinyl]-2-isopropyl-3(2H)-pyridazinone]	254 to 256
CC(C)n1nc(-c2c(-c3ccccc3)nc(N)nc2N2CCN(C)CC2)ccc1=O [Example 129, 6-[2-Amino-4-(4-methyl-1-piperazinyl)-6-phenyl-5-pyrimidinyl]-2-isopropyl-3(2H)-pyridazinone]	213 to 215
CC(C)n1nc(-c2c(-c3ccccc3)nc(N)nc2-n2ccnc2)ccc1=O [Example 130, 6-[2-amino-4-(1H-imidazol-1-yl)-6-phenyl-5-pyrimidinyl]-2-isopropyl-3(2H)-pyridazinone]	255 to 258
CC(C)n1nc(-c2c(-c3ccccc3)nc(N)nc2-n2cncn2)ccc1=O [Example 131, 6-[2-Amino-4-phenyl-6-(1H-1,2,4-triazol-1-yl)-5-pyrimidinyl]-2-isopropyl-3(2H)-pyridazinone]	266 to 268
CC(C)n1nc(-c2c(-c3ccccc3)nc(N)nc2-n2cnc3ccccc32)ccc1=O [Example 132, 6-[2-Amino-4-(1H-benzimidazol-1-yl)-6-phenyl-5-pyrimidinyl]-2-isopropyl-3(2H)-pyridazinone]	242 to 244
CC(C)n1nc(-c2c(Nc3ccccc3)nc(N)nc2-c2ccccc2)ccc1=O [Example 133, 6-(2-amino-4-anilino-6-phenyl-5-pyrimidinyl)-2-isopropyl-3(2H)-pyridazinone]	240 to 242
Cc1nc(Nc2nc(N)nc(-c3ccccc3)c2-c2ccc(=O)n(C(C)C)n2)sc1C [Example 134, 6-{2-Amino-4-[(4,5-dimethyl-1,3-thiazol-2-yl)amino]-6-phenyl-5-pyrimidinyl}-2-isopropyl-3(2H)-pyridazinone]	256 to 257.5
CC(C)n1nc(-c2c(Nc3ccccn3)nc(N)nc2-c2ccccc2)ccc1=O [Example 135, 6-[2-Amino-4-phenyl-6-(2-pyridinylamino)-5-pyrimidinyl]-2-isopropyl-3(2H)-pyridazinone]	163 to 164
CC(C)n1nc(-c2c(NC(=N)N)nc(N)nc2-c2ccccc2)ccc1=O [Example 137, N-[2-amino-5-(1-isopropyl-6-oxo-1,6-dihydro-3-pyridazinyl)-6-phenyl-4-pyrimidinyl]guanidine]	272 to 274.5
CC(C)n1nc(-c2c(Sc3ccccc3)nc(N)nc2-c2ccccc2)ccc1=O [Example 138, 6-[2-Amino-4-phenyl-6-(phenylthio)-5-pyrimidinyl]-2-isopropyl-3(2H)-pyridazinone]	214 to 215
CC(C)n1nc(-c2c(-c3ccccc3)nc(N)[nH]c2=O)ccc1=O [Example 140, 6-(2-amino-6-oxo-4-phenyl-1,6-dihydro-5-pyrimidinyl)-2-isopropyl-3(2H)-pyridazinone]	291 to 295
CC(C)n1nc(-c2c(-c3ccccc3)nc(N)[nH]c2=S)ccc1=O [Example 141, 6-(2-amino-4-phenyl-6-thioxo-1,6-dihydro-5-pyrimidinyl)-2-isopropyl-3(2H)-pyridazinone]	295 to 299
CSc1nc(N)nc(-c2ccccc2)c1-c1ccc(=O)n(C)n1 [Example 142, 6-[2-Amino-4-(methylthio)-6-phenyl-5-pyrimidinyl]-2-methyl-3(2H)-pyridazinone]	233 to 235
Cn1nc(-c2c(-c3ccccc3)nc(N)nc2[S+](C)[O-])ccc1=O (centres unmarked) [Example 143, 6-[2-amino-4-(methylsulfinyl)-6-phenyl-5-pyrimidinyl]-2-methyl-3(2H)-pyridazinone]	> 250
COc1nc(N)nc(-c2ccccc2)c1-c1ccc(=O)n(C)n1 [Example 144, 6-(2-Amino-4-methoxy-6-phenyl-5-pyrimidinyl)-2-methyl-3(2H)-pyridazinone]	218 to 220
Cn1nc(-c2c(NCc3ccccc3)nc(N)nc2-c2ccccc2)ccc1=O [Example 145, 6-[2-Amino-4-(benzylamino)-6-phenyl-5-pyrimidinyl]-2-methyl-3(2H)-pyridazinone]	> 250
Cn1nc(-c2c(NCc3ccccn3)nc(N)nc2-c2ccccc2)ccc1=O [Example 146, 6-{2-amino-4-phenyl-6-[(2-pyridinylmethyl)amino]-5-pyrimidinyl}-2-methyl-3(2H)-pyridazinone]	248 to 250

Structure (SMILES)	melting point [°C]
Cn1nc(-c2c(Nc3ccccc3)nc(N)nc2-c2ccccc2)ccc1=O [Example 147, 6-(2-Amino-4-anilino-6-phenyl-5-pyrimidinyl)-2-methyl-3(2H)-pyridazinone]	252 to 254
CSc1nc(N)nc(-c2ccc(F)cc2)c1-c1ccc(=O)n(C(C)C)n1 [Example 148, 6-[2-amino-4-(4-fluorophenyl)-6-(methylthio)-5-pyrimidinyl]-2-isopropyl-3(2H)-pyridazinone]	232 to 234
COc1nc(N)nc(-c2ccc(F)cc2)c1-c1ccc(=O)n(C(C)C)n1 [Example 149, 6-[2-amino-4-(4-fluorophenyl)-6-methoxy-5-pyrimidinyl]-2-isopropyl-3(2H)-pyridazinone]	207 to 209
COc1nc(N)nc(-c2ccc(S(C)(=O)=O)cc2)c1-c1ccc(=O)n(C(C)C)n1 [Example 150, 6-{2-amino-4-methoxy-6-[4-(methylsulfonyl)phenyl]-5-pyrimidinyl}-2-isopropyl-3(2H)-pyridazinone]	148 to 151
CC(C)n1nc(-c2c(-c3ccc(F)cc3)nc(N)nc2[S+](C)[O-])ccc1=O (centres unmarked) [Example 151, 6-[2-amino-4-(4-fluorophenyl)-6-(methylsulfinyl)-5-pyrimidinyl]-2-isopropyl-3(2H)-pyridazinone]	238 to 240
CSc1nc(N)nc(-c2ccc(S(C)(=O)=O)cc2)c1-c1ccc(=O)n(C(C)C)n1 [Example 151, 6-[2-amino-4-[4-(methylsulfonyl)phenyl]-6-(methylthio)-5-pyrimidinyl]-2-isopropyl-3(2H)-pyridazinone]	241 to 243
CSc1nc(N)nc(-c2ccc([S+](C)[O-])cc2)c1-c1ccc(=O)n(C(C)C)n1 (centres unmarked) [Example 152, 6-[2-amino-4-[4-(methylsulfinyl)phenyl]-6-(methylthio)-5-pyrimidinyl]-2-isopropyl-3(2H)-pyridazinone]	221 to 223
COc1nc(N)nc(-c2ccc([S+](C)[O-])cc2)c1-c1ccc(=O)n(C(C)C)n1 (centres unmarked) [Example 153, 6-{2-Amino-4-methoxy-6-[4-(methylsulfinyl)phenyl]-5-pyrimidinyl}-2-isopropyl-3(2H)-pyridazinone]	127 to 130
CC(C)n1nc(-c2c(NCc3ccccc3)nc(N)nc2-c2ccc(F)cc2)ccc1=O [Example 156, 6-[2-Amino-4-(benzylamino)-6-(4-fluorophenyl)-5-pyrimidinyl]-2-isopropyl-3(2H)-pyridazinone]	191 to 192
CC(C)n1nc(-c2c(NCc3ccccn3)nc(N)nc2-c2ccc(F)cc2)ccc1=O [Example 157, 6-{2-Amino-4-(4-fluorophenyl)-6-[(2-pyridinylmethyl)amino]-5-pyrimidinyl}-2-isopropyl-3(2H)-pyridazinone]	210 to 212
CC(C)n1nc(-c2c(Nc3ccccc3)nc(N)nc2-c2ccc(F)cc2)ccc1=O [Example 158, 6-[2-Amino-4-anilino-6-(4-fluorophenyl)-5-pyrimidinyl]-2-isopropyl-3(2H)-pyridazinone]	> 250
CC(C)n1nc(-c2c(-c3ccccc3)nc(N)n(CC(=O)OC(C)(C)C)c2=O)ccc1=O [Example 159, tert-butyl [2-amino-5-(1-isopropyl-6-oxo-1,6-dihydro-3-pyridazinyl)-6-oxo-4-phenyl-1(6H)-pyrimidinyl]acetate]	138 to 141
CC(C)n1nc(-c2c(OCC(=O)OC(C)(C)C)nc(N)nc2-c2ccccc2)ccc1=O [Example 159, tert-butyl {[2-amino-5-(1-isopropyl-6-oxo-1,6-dihydro-3-pyridazinyl)-6-phenyl-4-pyrimidinyl]-oxy}acetate]	160 to 162
CC(C)n1nc(-c2c(OCC(=O)c3ccccc3)nc(N)nc2-c2ccccc2)ccc1=O [Example 161, 6-[2-Amino-4-(2-oxo-2-phenylethoxy)-6-phenyl-5-pyrimidinyl]-2-isopropyl-3(2H)-pyridazinone]	182 to 183
CC(C)CC(=O)Nc1ncc(-c2ccc(=O)n(C(C)C)n2)c(-c2ccccc2)n1 [Example 162, N-[5-(1-isopropyl-6-oxo-1,6-dihydro-3-pyridazinyl)-4-phenyl-2-pyrimidinyl]-3-methylbutanamide]	161
CC(C)C(=O)Nc1ncc(-c2ccc(=O)n(C(C)C)n2)c(-c2ccccc2)n1 [Example 163, N-[5-(1-isopropyl-6-oxo-1,6-dihydro-3-pyridazinyl)-4-phenyl-2-pyrimidinyl]-2-methylpropanamide]	145 to 147
CCCC(=O)Nc1ncc(-c2ccc(=O)n(C(C)C)n2)c(-c2ccccc2)n1 [Example 164, N-[5-(1-isopropyl-6-oxo-1,6-dihydro-3-pyridazinyl)-4-phenyl-2-pyrimidinyl]butanamide]	148 to 150
CC(C)n1nc(-c2cnc(NC(=O)C3CCCCC3)nc2-c2ccccc2)ccc1=O [Example 165, N-[5-(1-isopropyl-6-oxo-1,6-dihydro-3-pyridazinyl)-4-phenyl-2-pyrimidinyl]cyclohexanecarboxamide]	195 to 198
COCC(=O)Nc1ncc(-c2ccc(=O)n(C(C)C)n2)c(-c2ccccc2)n1 [Example 166, N-[5-(1-isopropyl-6-oxo-1,6-dihydro-3-pyridazinyl)-4-phenyl-2-pyrimidinyl]-2-methoxyacetamide]	94 to 97
